What was measured:
KRAS (G13D)::SOS1 = molecular target: T1, KRAS (G13D)::SOS1 (Homo sapiens, UniProt P01116, C118S/G13D); test: KRAS::SOS1 AlphaScreen binding assay, KRAS G13D
T1 construct: KRAS (G13D) 1-169, N-terminal 6His-tag for purification, cleaved off; 6His-tag (N, cleaved yes); TEV cleavage site; made in house
From the text: This assay can be used to examine the potency with which compounds according to the invention binding to (mutated) KRAS inhibit the protein-protein interaction between SOS1 and (mutated) KRAS e.g., KRAS WT, KRAS G12C, KRAS G12D, KRAS G12V, KRAS G13D. […] Low IC50 values in this assay setting are indicative of strong inhibition of protein-protein interaction between SOS1 and KRAS:
These assays measure the inhibitory effect of compounds on KRAS mutant protein-protein interactions using the Alpha Screen technology by Perkin Elmer […]
Plates are kept at room temperature in a darkened incubator. After an additional 60 minutes incubation time the signal is measured in a PerkinElmer Envision HTS Multilabel Reader using the AlphaScreen specs from PerkinElmer. […]
As internal control known inhibitors of KRAS mutant::SOS1 interaction can be measured on each compound plate. […]

MKN1 cells = test: MKN1 CTG proliferation assay (120 h) (gastric cancer, wt amplified), assay 2; format: cell-based; conditions: Homo sapiens, MKN-1
Experimental: SAS cells (JCRB0260) are dispensed into 384-well plates, flat and clear bottom (Greiner, PNr. 781091) at a density of 300 cells per well in 60 μL DMEM:F12 (Gibco 31330-038)+10% Fetal Calf Serum (HyClone, PNr.: SH30084.03) and incubated at 37° C. in a CO2 incubator overnight The next day, compounds (10 mM stock in DMSO) are added with the ECHO acoustic liquid handler system (Beckman Coulter), including DMSO controls. Plates are incubated for 120 h, and cell viability is measured using CellTiter-Glo luminescent cell viability reagent (Promega product code G7570). Viability (stated as percent of control) is defined as relative luminescence units RLU of each well divided by the RLU of cells in DMSO controls.
MKN1 cells (JCRB0252) are dispensed into white 384-well plates, flat and white bottom (Perkin Elmer, 6007680) at a density of 500 cells per well in 40 μl RPMI (Gibco, PNr.: 21875034)+10% FCS (HyClone, PNr.: SH30084.03) (assay 1) or into black 384-well plates, flat and clear bottom (Greiner, PNr. 781091) at a density of 200 cells per well in 60 μl RPMI-1640 (Gibco #A10491)+10% FCS (HyClone, PNr.: SH30084.03)+PenStrep (Gibco, PNr.15140-122) (assay 2). […] Compounds (10 mM stock in DMSO) are added at logarithmic dose series using the HP Digital Dispenser D300 (Tecan) (assay 1) or the ECHO acoustic liquid handler system (Beckman Coulter) (assay 2), including DMSO controls and normalizing for added DMSO. Plates are incubated for 120 h, and cell viability is measured using CellTiter-Glo luminescent cell viability reagent (Promega product code G7570). Viability (stated as percent of control) is defined as relative luminescence units RLU of each well divided by the RLU of cells in DMSO controls.

T1 sequence (P01116 1-169 isoform P01116-2 G13D/C118S): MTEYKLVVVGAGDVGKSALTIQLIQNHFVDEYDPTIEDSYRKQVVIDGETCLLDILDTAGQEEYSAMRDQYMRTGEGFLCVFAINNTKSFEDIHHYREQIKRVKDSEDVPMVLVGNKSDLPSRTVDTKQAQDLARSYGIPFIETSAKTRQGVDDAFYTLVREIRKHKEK

IC50 (KRAS (G13D)::SOS1) | IC50 (MKN1 cells) | SMILES
8 nM | 108 nM | C[C@H](Oc1cc(OCC2(N(C)C)COC2)nc(-c2onc3c2CCC[C@@]32CCCc3sc(N)c(C#N)c32)n1)[C@@H]1CCCN1C [Example I-8]
8 nM | – | COc1c(OCC2(N(C)C)COC2)nc(-c2noc3c2CCC[C@@]32CCCc3sc(N)c(C#N)c32)nc1O[C@@H](C)[C@@H]1CCCN1C [II-25]
– | 129 nM | C[C@H](Oc1cc(O[C@@H]2CNC2(C)C)nc(-c2noc3c2CCC[C@@]32CCCc3sc(N)c(C#N)c32)n1)[C@@H]1CCCN1C [II-9]
– | 90 nM | C[C@H](Oc1cc(OCCO)nc(-c2noc3c2CCC[C@@]32CCCc3sc(N)c(C#N)c32)n1)[C@@H]1CCCN1C [II-6]

Second part, the compound before the results:

SMILES | IC50 (KRAS (G13D)::SOS1) | IC50 (MKN1 cells)
C[C@H](Oc1cc(Oc2cncnc2)nc(-c2noc3c2CCC[C@@]32CCCc3sc(N)c(C#N)c32)n1)[C@@H]1CCCN1C [II-1] | – | 43 nM
C[C@H](Oc1cc(OCC2(N(C)C)COC2)nc(-c2noc3c2CCC[C@@]32CCCc3sc(N)c(C#N)c32)n1)[C@@H]1CCCN1C [II-22] | 6 nM | –
C[C@H](Oc1cc(Oc2cccnc2)nc(-c2onc3c2CCC[C@@]32CCCc3sc(N)c(C#N)c32)n1)[C@@H]1CCCN1C [Example I-2] | – | 109 nM
